# Experimental data reported in patent EP4685142A1, “TRIAZINE COMPOUND AND USE THEREOF” (Chengdu Zenitar Biomedical Technology Co., Ltd., priority 2023, dated 2024).
# Biological target: T1, NLRP3 inflammasome (Homo sapiens, UniProt Q96P20)
# T1 construct: host or cells: THP-1 cells
# Assay: Inhibitory activity of NLRP3 inflammasome in human monocytes (THP-1 cells, LPS + Nigericin, IL-1β ELISA)
# Format: cell-based
# Details: not given
# Experimental: 1. Determination of inhibitory activity of NLRP3 inflammasome in human monocytes
# Experimental method: THP-1 cells were cultured in RPMI culture medium containing PMA (10 µM), and then inoculated in 48-well plates at a density of 2×10^5 cells/mL, the plates were incubated overnight in a 5% CO2 incubator at 37°C. The next day, the above culture medium was replaced with Opti-MEM culture medium containing 1 µg/mL LPS. After 3 hours, the grown cells were simulated for 40 min with a drug, and then simulated for 40 min with Nigericin (10 µM), and a cell supernatant was harvested for ELISA analysis.
# Table 2 Inhibitory activity of NLRP3 inflammasome
# T1 sequence (Q96P20 whole entry): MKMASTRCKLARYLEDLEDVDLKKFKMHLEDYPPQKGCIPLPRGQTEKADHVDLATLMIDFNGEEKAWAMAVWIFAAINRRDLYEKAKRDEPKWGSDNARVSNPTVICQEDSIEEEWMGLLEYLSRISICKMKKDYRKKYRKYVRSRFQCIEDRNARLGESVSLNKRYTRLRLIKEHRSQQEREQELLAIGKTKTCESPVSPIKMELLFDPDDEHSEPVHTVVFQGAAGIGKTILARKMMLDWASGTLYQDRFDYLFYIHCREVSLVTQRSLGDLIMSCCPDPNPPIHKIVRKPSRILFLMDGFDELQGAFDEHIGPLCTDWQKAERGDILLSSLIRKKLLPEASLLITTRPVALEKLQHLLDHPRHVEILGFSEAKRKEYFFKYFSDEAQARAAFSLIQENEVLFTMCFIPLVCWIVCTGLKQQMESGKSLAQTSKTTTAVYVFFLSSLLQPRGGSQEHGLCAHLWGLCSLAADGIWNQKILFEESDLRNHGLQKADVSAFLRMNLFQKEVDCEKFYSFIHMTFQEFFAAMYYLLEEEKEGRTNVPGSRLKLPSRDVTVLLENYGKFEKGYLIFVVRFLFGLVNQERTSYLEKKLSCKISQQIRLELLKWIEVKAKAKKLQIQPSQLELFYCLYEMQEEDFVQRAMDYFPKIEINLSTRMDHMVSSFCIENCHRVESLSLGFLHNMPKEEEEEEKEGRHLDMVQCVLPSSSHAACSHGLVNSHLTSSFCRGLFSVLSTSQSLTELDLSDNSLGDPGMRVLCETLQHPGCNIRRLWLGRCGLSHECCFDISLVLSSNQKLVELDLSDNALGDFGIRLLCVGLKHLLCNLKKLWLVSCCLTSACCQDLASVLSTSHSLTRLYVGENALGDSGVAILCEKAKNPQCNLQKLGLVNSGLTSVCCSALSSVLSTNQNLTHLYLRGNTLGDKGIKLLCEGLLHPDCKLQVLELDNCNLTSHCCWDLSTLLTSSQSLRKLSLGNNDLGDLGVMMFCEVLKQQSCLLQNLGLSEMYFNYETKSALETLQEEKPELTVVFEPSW
row,SMILES,IC50 [nM]
1,"CN1CCC[C@@H](Nc2nnc(-c3ccc(-c4ccc(F)cc4)cc3O)n(C)c2=O)C1 [Compound 46, (R)-3-(4'-fluoro-3-hydroxy-[1,1'-biphenyl]-4-yl)-4-methyl-6-((1-methylpiperidin-3-yl)amino)-1,2,4-triazin-5(4H)-ketone]",25.5

# Same assay, conditions: THP-1 cells, PMA, LPS 1 µg/mL 3 h, drug 40 min, Nigericin 10 µM 40 min, IL-1β ELISA; read-out: IC50
row,SMILES,IC50 [nM]
1,"CC#Cc1ccc(-c2nnc(N[C@@H]3CCCN(CCO)C3)c(=O)n2C)c(O)c1 [Compound 29, (R)-6-((1-(2-hydroxyethyl)piperidin-3-yl)amino)-3-(2-hydroxy-4-(prop-1-yn-1-yl)phenyl)-4-methyl-1,2,4-triazin-5(4H)-ketone]",46.5
2,"[2H]C([2H])([2H])N1CCC[C@@H](Nc2nnc(-c3ccc4sccc4c3O)n(C)c2=O)C1 [Compound 10, (R)-3-(4-hydroxybenzo[b]thiophen-5-yl)-4-methyl-6-((1-(methyl-d3)piperidin-3-yl)amino)-1,2,4-triazin-5(4H)-ketone]",3.9
3,"CC#Cc1ccc(-c2nnc(N[C@@H]3CCCN(C)C3)c(=O)n2C)c(O)c1 [Compound 27, (R)-3-(2-hydroxy-4-(prop-1-yn-1-yl)phenyl)-4-methyl-6-((1-methylpiperidin-3-yl)amino)-1,2,4-triazin-5(4H)-ketone]",14.3
4,"C#Cc1ccc(-c2nnc(N[C@@H]3CCCN(CCO)C3)c(=O)n2C)c(O)c1 [Compound 26, (R)-3-(4-ethynyl-2-hydroxyphenyl)-6-((1-(2-hydroxyethyl)piperidin-3-yl)amino)-4-methyl-1,2,4-triazin-5(4H)-ketone]",25.1
5,"CN1CCCC2CCN(c3nnc(-c4ccc5sccc5c4O)n(C)c3=O)C21 (stereo not drawn) [Compound 48, 3-(4-hydroxybenzo[b]thiophen-5-yl)-4-methyl-6-(7-methyloctahydro-1H-pyrrolo[2,3-b]pyridin-1-yl)-1,2,4-triazin-5(4H)-ketone]",18.5

# Same assay, conditions: read-out: IC50
row,SMILES,IC50 [nM]
1,"O=c1c(N[C@@H]2CCCN(CCO)C2)nnc(-c2ccc3sccc3c2O)n1C1CC1 [Compound 23, (R)-4-cyclopropyl-3-(4-hydroxybenzo[b]thiophen-5-yl)-6-((1-(2-hydroxyethyl)piperidin-3-yl)amino)-1,2,4-triazin-5(4H)-ketone]",8.95
2,"C[C@@H]1[C@H](Nc2nnc(-c3ccc4sccc4c3O)n(C)c2=O)CCCN1C [Compound 49, 6-(((2R,3R)-1,2-dimethylpiperidin-3-yl)amino)-3-(4-hydroxybenzo[b]thiophen-5-yl)-4-methy 1-1,2,4-triazin-5(4H)-ketone]",8.12
3,"CN1C[C@H](Nc2nnc(-c3ccc4sccc4c3O)n(C)c2=O)CC(F)(F)C1 [Compound 37, (R)-6-((5,5-difluoro-1-methylpiperidin-3-yl)amino)-3-(4-hydroxybenzb[b]thiophen-5-yl)-4-m ethyl-1,2,4-triazin-5(4H)-ketone]",15.1
4,"CCN1CCC[C@@H](Nc2nnc(-c3ccc(C#CC4CC4)cc3O)n(C)c2=O)C1 [Compound 45, (R)-3-(4-(cyclopropylethynyl)-2-hydroxyphenyl)-6-((1-ethylpiperidin-3-yl)amino)-4-methyl-1 ,2,4-triazin-5(4H)-ketone]",345
5,"[2H]C([2H])([2H])C([2H])([2H])N1CCC[C@@H](Nc2nnc(-c3ccc4ccccc4c3O)n(C)c2=O)C1 [Compound 7, (R)-6-((1-(ethyl-d5)piperidin-3-yl)amino)-3-(1-hydroxynaphthalen-2-yl)-4-methyl-1,2,4-triazi n-5(4H)-ketone]",22.1
6,"C#Cc1ccc(-c2nnc(N[C@@H]3CCCC[C@H]3O)c(=O)n2C)c(O)c1 [Compound 31, 3-(4-ethynyl-2-hydroxyphenyl)-6-(((1R,2R)-2-hydroxycyclohexyl)amino)-4-methyl-1,2,4-tria zin-5(4H)-ketone]",3.64
7,"Cn1c(-c2ccc3c(c2O)CCC3=C(F)F)nnc(N[C@@H]2CCCN(CCO)C2)c1=O [Compound 1, (R)-3-(1-(difluoromethylene)-4-hydroxy-2,3-dihydro-1H-inden-5-yl)-6-((1-(2-hydroxyethyl)piperidin-3-yl)amino)-4-methyl-1,2,4-triazin-5(4H)-ketone]",4.24
8,"Cn1c(-c2ccc3ccccc3c2O)nnc(N[C@@H]2CCCC[C@H]2O)c1=O [Compound 33, 6-(((1R,2R)-2-hydroxycyclohexyl)amino)-3-(1-hydroxynaphthalene-2-yl)-4-methyl-1,2,4-tria zine-5(4H)-ketone]",12.5
9,"CN1CCO[C@H](CNc2nnc(-c3ccc4sccc4c3O)n(C)c2=O)C1 [Compound 34, (R)-3-(4-hydroxybenzo[b]thiophen-5-yl)-4-methyl-6-(((4-methylmorpholino-2-yl)methyl)amino)-1,2,4-triazine-5(4H)-ketone]",75
10,"Cn1c(-c2ccc3c(c2O)CCC3=C(F)F)nnc(N[C@@H]2CCCN(C3CC(F)(F)C3)C2)c1=O [Compound 14, (R)-6-((1-(3,3-Difluorocyclobutyl)piperidin-3-yl)amino)-3-(1-(difluoromethylene)-4-hydroxy-2,3-dihydro-1H-inden-5-yl)-4-methyl-1,2,4-triazin-5(4H)-ketone]",32
11,"[2H]C([2H])([2H])C([2H])([2H])N1CCC[C@@H](Nc2nnc(-c3ccc4c(c3O)CCC4=C(F)F)n(C)c2=O)C1 [Compound 15, (R)-3-(1-(difluoromethylene)-4-hydroxy-2,3-dihydro-1H-inden-5-yl)-6-((1-(ethyl-d5)piperidin-3-yl)amino)-4-methyl-1,2,4-triazin-5(4H)-ketone]",1.45
12,"CN1CCC[C@@H](Nc2nnc(-c3ccc4sccc4c3O)n(C3CC3)c2=O)C1 [Compound 21, (R)-4-cyclopropyl-3-(4-hydroxybenzo[b]thiophen-5-yl)-6-((1-methylpiperidin-3-yl)amino)-1,2,4-triazin-5(4H)-ketone]",3.51
13,"CCN1CCC[C@@H](Nc2nnc(-c3ccc(C4CC4)cc3O)n(C)c2=O)C1 [Compound 11, (R)-3-(4-cyclopropyl-2-hydroxyphenyl)-6-((1-ethylpiperidin-3-yl)amino)-4-methyl-1,2,4-triaz in-5(4H)-ketone]",6.5
14,"CN1CCC[C@@H](Nc2nnc(-c3ccc(C#CC4CC4)cc3O)n(C)c2=O)C1 [Compound 44, (R)-3-(4-(cyclopropylethynyl)-2-hydroxyphenyl)-4-methyl-6-((1-methylpiperidin-3-yl)amino) -1,2,4-triazin-5(4H)-ketone]",80
15,"CCN1CCC[C@@H](Nc2nnc(-c3ccc4ccccc4c3O)n(C)c2=O)C1 [Compound 19, (R)-6-((1-ethylpiperidin-3-yl)amino)-3-(1-hydroxynaphthalen-2-yl)-4-methyl-1,2,4-triazin-5(4H)-ketone]",19.1
16,"CN1CCC[C@@H](Nc2nnc(-c3ccc(-c4ncccn4)cc3O)n(C)c2=O)C1 [Compound 47, (R)-3-(2-hydroxy-4-(pyrimidin-2-yl)phenyl)-4-methyl-6-((1-methylpiperidin-3-yl)amino)-1,2,4-triazin-5(4H)-ketone]",450
17,"CC#Cc1ccc(-c2nnc(N[C@@H]3CCCC[C@H]3O)c(=O)n2C)c(O)c1 [Compound 32, 3-(2-hydroxy-4-(prop-1-yn-1-yl)phenyl)-6-(((1R,2R)-2-hydroxycyclohexyl)amino)-4-methyl-1,2,4-triazin-5(4H)-ketone.]",8.53
18,"CN1CCC[C@@H](Nc2nnc(-c3ccc4sccc4c3OC(F)F)n(C)c2=O)C1 [Compound 38, (R)-3-(4-(difluoromethoxy)benzo[b]thiophen-5-yl)-4-methyl-6-((1-methylpiperidin-3-yl)amino)-1,2,4-triazin-5(4H)-ketone]",257
